Key:
[1] = system: HepG2 cells; assay: MTT antiproliferative assay, HepG2 cells; format: cell-based; conditions: Homo sapiens, HepG2 HCC cell line, triplicate, read-out: IC50 ± SD HepG2
[2] = system: HCT116 cells; assay: MTT antiproliferative assay, HCT116 cells; format: cell-based; conditions: Homo sapiens, HCT-116, HCT116 CRC cell line, triplicate, read-out: IC50 ± SD HCT116
[3] = system: normal human fibroblast cell line (WI-38); assay: MTT cytotoxicity assay, normal human fibroblast cell line WI-38; format: cell-based; conditions: WI-38 normal human fibroblasts, read-out: IC50 ± SD WI-38
[4] = molecular target: T1, CDK2/CyclinA2 (Homo sapiens, UniProt P24941); assay: In vitro enzymatic CDK2 inhibition assay (Kinase-Glo luminescence kit); format: biochemical; conditions: triplicate; read-out: CDK2 Inhibition IC50 ± SD
T1 construct: purchased BPS Bioscience Inc. (San Diego, CA, USA)
Procedure: . […]. In vitro evaluation of CDK2 inhibition was determined using a commercially available assay kit from BPS Bioscience Inc. (San Diego, CA, USA) as described in the Supplementary Information. […]
serum. After that, the reconstituted MTT was added in an amount equal to 10% of the culture medium volume. Cultures were returned to incubator for 2-4 hours depending on cell type and maximum cell density. Incubation times should be consistent when making comparisons. After the incubation period, cultures were removed from incubator and the resulting formazan crystals were dissolved by adding an amount of MTT Solubilization Soluti on [M-8910] equal to the original culture medium volume. Occasionally, especially in dense cultures, pipetting up and down [trituration] may be required to completely dissolve the MTT formazan crystals.
Absorbance was measured spectrophotometrically at a wavelength of 570 nm. The background absorbance of multiwell plates was measured at 690 nm and subtract from the 570 nm […]
2.2. CDK2/Cyclin A2 inhibitory activity
Promega Kinase-Glo Plus luminescence kinase assay protocol was adopted as reported. […]
reaction by adding 20 μl of diluted CDK2/CyclinA2 enzyme to the wells designated “Positive Control” and "Test Inhibitor Control". […] Measure luminescence using the microplate reader. “Blank” value is subtracted from all readings. […]

Structure (SMILES) | IC50 [1] [µM] | IC50 [2] [µM] | IC50 [3] [µM] | IC50 [4] [nM] | melting point [°C]
COC(=O)Cn1c(C)nc2c(cnn2-c2ccccc2)c1=O [Compound 2a] | 32.9 ± 1.67 | 19.4 ± 0.86 | – | – | –
Cc1nc2c(cnn2-c2ccccc2)c(=O)n1CC(=O)Nc1ccc(Cl)cc1 [Compound 4b] | 2.57 ± 0.13 | 3.38 ± 0.15 | 48.5 | 960 ± 50 | –
Cc1nc2c(cnn2-c2ccccc2)c(=O)n1CC(=O)c1ccc(Cl)cc1 [Compound 3a] | 26.2 ± 1.33 | 35.9 ± 1.59 | – | – | –
CCOC(=O)Cn1c(C)nc2c(cnn2-c2ccccc2)c1=O [Compound 2b] | 58 ± 2.94 | 10.9 ± 0.48 | – | – | –
Cc1nc2c(cnn2-c2ccccc2)c(=O)n1CC(=O)Nc1cccc2ccccc12 [Compound 4e] | 16.1 ± 0.81 | 41.2 ± 1.83 | – | – | –
COc1cccc(NC(=O)Cn2c(C)nc3c(cnn3-c3ccccc3)c2=O)c1 [Compound 4c] | 87.3 ± 4.42 | 26.4 ± 1.17 | – | – | 220 to 225
Cc1nc2c(cnn2-c2ccccc2)c(=O)n1CC(=O)Nc1ccc(F)cc1 [Compound 4a] | 0.58 ± 0.03 | 1.09 ± 0.05 | 58.6 | 210 ± 10 | –
Cc1ccc(C(=O)Cn2c(C)nc3c(cnn3-c3ccccc3)c2=O)cc1 [Compound 3b] | 1.9 ± 0.1 | 10.8 ± 0.48 | – | – | –
